# What was measured:
# [1] = target: T1, Transmembrane prolyl 4-hydroxylase (Homo sapiens) (UniProt Q9NXG6); test: Compound was tested for substrate specificity of human proline-4-hydroxylase; Substrate
# T1 sequence (whole entry): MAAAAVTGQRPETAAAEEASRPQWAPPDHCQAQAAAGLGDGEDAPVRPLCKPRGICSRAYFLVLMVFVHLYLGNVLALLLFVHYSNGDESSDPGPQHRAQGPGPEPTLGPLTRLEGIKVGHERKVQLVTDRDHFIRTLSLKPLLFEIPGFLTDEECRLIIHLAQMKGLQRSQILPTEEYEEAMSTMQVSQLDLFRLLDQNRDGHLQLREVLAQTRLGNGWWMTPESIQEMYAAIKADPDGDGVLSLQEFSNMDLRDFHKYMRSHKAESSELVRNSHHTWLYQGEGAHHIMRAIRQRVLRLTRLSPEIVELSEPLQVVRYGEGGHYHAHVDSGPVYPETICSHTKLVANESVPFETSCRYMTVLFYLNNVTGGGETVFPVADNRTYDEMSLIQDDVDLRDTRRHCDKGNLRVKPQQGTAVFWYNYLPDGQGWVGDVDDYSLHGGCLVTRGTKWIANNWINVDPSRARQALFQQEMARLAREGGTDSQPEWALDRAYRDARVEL
# [2] = target: T2, Transmembrane prolyl 4-hydroxylase (Homo sapiens, UniProt Q9NXG6); test: Compound was tested for inhibition of the enzyme human proline-4-hydroxylase; No inhibition
# T2 sequence (Q9NXG6 whole entry): T1 sequence (whole entry)
# [3] = target: T1, Transmembrane prolyl 4-hydroxylase (Homo sapiens); test: Compound was tested for substrate specificity of human proline-4-hydroxylase; Not a substrate
Structure (SMILES),Activity [1],IC50 [2],Activity [3]
CCOC(=O)CNC(=O)[C@@H]1C(F)CCN1C(=O)[C@H](Cc1ccccc1)NC(=O)CNC(=O)OCc1ccccc1 (stereo partly specified),Substrate,–,–
CCOC(=O)CNC(=O)[C@@H]1CC(C)CN1C(=O)[C@H](Cc1ccccc1)NC(=O)CNC(=O)OCc1ccccc1 (stereo partly specified),–,Not Active,Not a substrate
CCOC(=O)CNC(=O)[C@@H]1C(C)CCN1C(=O)[C@H](Cc1ccccc1)NC(=O)CNC(=O)OCc1ccccc1 (stereo partly specified),–,Not Active,Not a substrate
CCOC(=O)CNC(=O)[C@H]1N(C(=O)[C@H](Cc2ccccc2)NC(=O)CNC(=O)OCc2ccccc2)CCC12CC2,–,Not Active,Not a substrate
CCOC(=O)CNC(=O)[C@@H]1C(Br)CCN1C(=O)[C@H](Cc1ccccc1)NC(=O)CNC(=O)OCc1ccccc1 (stereo partly specified),–,Not Active,Not a substrate
CCOC(=O)CNC(=O)[C@@H]1C(Cl)CCN1C(=O)[C@H](Cc1ccccc1)NC(=O)CNC(=O)OCc1ccccc1 (stereo partly specified),–,Not Active,Not a substrate
